These results are taken from patent US12612388B2, “Receptor-interacting protein 1 inhibitors including piperazine heterocyclic amide ureas” (SIRONAX LTD., priority 2020, dated 2026).

One assay concerns HT-29 cells. Description: Cellular RIP1 inhibitory activity: necroptosis of HT-29 cells induced by TNF-α/SMAC mimetic/zVAD-FMK, CellTiter-Glo viability. The assay is classed as cell-based. Conditions: Homo sapiens, HT-29, 20 h, read-out: EC50 (Cell activity; Necrosis or Necroptosis Inhibitory Activity). The procedure:
In Table 2, activity is provided as follows: +++=0.1 nM≤EC50<100 nM; ++=100 nM≤EC50K<1000 nM; +=1000 nM≤EC50K<10000 nM.
Compounds 1-67 (denoted as Compound Nos. 1 through 67 in Table 1) of the disclosure were tested for binding and cellular RIP1 inhibitory activity following the experimental procedures described below.
Cell line: HT-29 (ATCC® HTB-38™)
Culture medium: McCOY's 5A, Gibco, Cat No. 16600-082
DMSO: Sigma, Cat No. 67-68-5, 1 L
Assay plate: Corning #3903
Compound dilution plate: Corning #3357
Inducers: TNFα, GenScript, Cat No. Z01001-50,
SmacM, Cat. No., HY-15989, MedChemExpress (MCE)
Z_VAD FMK, TargetMol, T6013
Cell Titer-Glo® Luminescent Cell Viability Assay Kit: Promega, Cat No. G7573
1. HT-29 cells were checked every day to make sure that they were healthy and growing as expected. They were subjected to sub-culturing when they were approximately 80% confluent.
2. The culture medium, McCOY's 5A medium (Gibco, Cat No. 16600-082) with 10% fetal bovine serum or FBS (Gibco, Cat No. 10099-141C), was pre-warmed in a 37° C. water bath for at least 30 min.
3. When the cells had reached a desired level of confluency of 80% in a T75 flask, the medium was aspirated, and the cells were washed with warm phosphate buffered saline or PBS two times.
4. 2-3 ml fresh warm trypsin (Gibco, Cat No. 25200-056) solution was added to the washed cells. The flask with the cells was transferred to a 37° C. incubator.
5. After 5 minutes, the side of the flask was tapped, and the flask was examined under a microscope for detachment of the cells to the flask. If necessary, the cells were kept in the incubator for an additional 5-10 minutes, with occasional tapping, until lifting was complete.
6. The trypsin reaction was neutralized by transferring 6-9 ml cell culture medium to sterile 15 ml conical tubes, and by centrifuging the cell culture at 300×g for 7 minutes to pellet the cells (supernatant decanted).
7. The cells were resuspended in fresh cell culture medium and the cell counting was performed using a hemocytometer.
8. 100 μl of the resuspended cell culture medium containing ˜5,000 cells were transferred into each well of the sterile 96-well cell culture plate (Corning 3903) and cultured overnight at 37° C. with 5% CO2.
Compound Titration and Treatment
1. All test compounds were dissolved in DMSO (Dimethyl sulfoxide) to create a 20 mM stock.
2. 3 μl of each compound 20 mM stock was mixed with 27 μl DMSO, and the compound solution was further diluted at a titration ratio of 1:3 (20 μl compound solution+40 μl DMSO) till the 10 points end.
3. All culture medium was removed from assay plates filled with HT-29 cell cultures. The cells were then washed with 1 PBS, and resuspended in fresh, FBS-free McCOY's 5A medium containing a cocktail of TNF-α (10 ng/ml), a SMAC mimetic compound (6 μM) and Z-VAD-fluoromethylketone or zVAD-FMK (10 μM) to stimulate the HT-29 cells to increase RIP1 kinase levels and necroptosis.
4. 0.5 μL of the diluted compound solution was added to the corresponding 96-well assay plates.
5. The assay plates were incubated for 20 hours at 37° C. with 5% CO2.
1. The CellTiter-Glo® Luminescent Cell Viability Assay was employed to detect the ATP levels of viable HT-29 cells.
2. The CellTiter-Glo® buffer and the lyophilized substrate were equilibrated to room temperature prior to use.
3. The CellTiter-Glo® substrate was resuspended with CellTiter-Glo® buffer, then mixed by gently vortexing to obtain a homogeneous solution.
4. 20 μl the enzyme/substrate mixture was transferred by multi-channel pipetting into 96-well assay plates.
5. The assay plates were placed on an orbital shaker and the contents were shaken for 3 minutes to induce cell lysis.
6. The assay plates were incubated at room temperature for 10 minutes to stabilize the luminescent signal.
7. The luminescence signals were read and recorded with EnVision.
8. The geometric mean EC50 values were calculated from 10 points response dose with duplicates. […]
Background: Cellular ATP, detected with luciferase, serves as a proxy for viable cell number.
In general, EC50 refers to the concentration needed to bring the measured effect to its halfway point. As to `CCNC(=O)c1ccnc(N2CCN(C(=O)N3N=CC[C@H]3c3cc(F)cc(F)c3)CC2)n1` [Compound 35, (S)-2-(4-(5-(3,5-difluorophenyl)-4,5-dihydro-1H-pyrazole-1-carbonyl)piperazin-1-yl)-N-ethylpyrimidine-4-carboxamide], the EC50 lay within 0.1 to 100 nM.

Take `O=C(c1ccnc(N2CCN(C(=O)N3N=CC[C@H]3c3cc(F)cc(F)c3)CC2)n1)N1CCC1` [Compound 36, (S)-azetidin-1-yl(2-(4-(5-(3,5-difluorophenyl)-4,5-dihydro-1H-pyrazole-1-carbonyl)piperazin-1-yl)pyrimidin-4-yl)methanone]: the half-maximal effective concentration (EC50) lay within 0.1 to 100 nM.

Staying with this assay, now noted: Homo sapiens; HT-29 cells; TNF-α 10 ng/ml, SMAC mimetic 6 μM, zVAD-FMK 10 μM; 20 hours; geometric mean, 10 points, duplicates; read-out: EC50 (Cell activity; Necrosis or Necroptosis Inhibitory Activity).
`CN(O)C(=O)c1nc(N2CCN(C(=O)N3N=CC[C@H]3c3cc(F)cc(F)c3)CC2)ncc1F` [Compound 20, (S)-2-(4-(5-(3,5-difluorophenyl)-4,5-dihydro-1H-pyrazole-1-carbonyl)piperazin-1-yl)-5-fluoro-N-hydroxy-N-methylpyrimidine-4-carboxamide]: the EC50 lay within 0.1 to 100 nM. Still for that read-out and setting: the result for `COC1CN(C(=O)c2nc(N3CCN(C(=O)N4N=CC[C@H]4c4cc(F)cc(F)c4)CC3)ncc2F)C1` [Compound 21, (S)-(5-(3,5-difluorophenyl)-4,5-dihydro-1H-pyrazol-1-yl)(4-(5-fluoro-4-(3-methoxyazetidine-1-carbonyl)pyrimidin-2-yl)piperazin-1-yl)methanone] reads 0.1 to 100 nM. Same read-out and setting: the result for `COC1(C)CN(C(=O)c2nc(N3CCN(C(=O)N4N=CC[C@H]4c4cc(F)cc(F)c4)CC3)ncc2F)C1` [Compound 22, (S)-(5-(3,5-difluorophenyl)-4,5-dihydro-1H-pyrazol-1-yl)(4-(5-fluoro-4-(3-methoxy-3-methylazetidine-1-carbonyl)pyrimidin-2-yl)piperazin-1-yl)methanone] reads 0.1 to 100 nM.

On to `CCOC1CN(C(=O)c2nc(N3CCN(C(=O)N4N=CC[C@H]4c4cc(F)cc(F)c4)CC3)ncc2F)C1` [Compound 23, (S)-(5-(3,5-difluorophenyl)-4,5-dihydro-1H-pyrazol-1-yl)(4-(4-(3-ethoxyazetidine-1-carbonyl)-5-fluoropyrimidin-2-yl)piperazin-1-yl)methanone], for which the 50% effective concentration (EC50) lay in the range of 0.1 to 100 nM. For the molecule `CC(C)OC1CN(C(=O)c2nc(N3CCN(C(=O)N4N=CC[C@H]4c4cc(F)cc(F)c4)CC3)ncc2F)C1` [Compound 24, (S)-(5-(3,5-difluorophenyl)-4,5-dihydro-1H-pyrazol-1-yl)(4-(5-fluoro-4-(3-isopropoxyazetidine-1-carbonyl)pyrimidin-2-yl)piperazin-1-yl)methanone], the EC50 is 0.1 to 100 nM. On the same count and under the same terms, the result for `N#CC1CN(C(=O)c2nc(N3CCN(C(=O)N4N=CC[C@H]4c4cc(F)cc(F)c4)CC3)ncc2F)C1` [Compound 25, (S)-1-(2-(4-(5-(3,5-difluorophenyl)-4,5-dihydro-1H-pyrazole-1-carbonyl)piperazin-1-yl)-5-fluoropyrimidine-4-carbonyl)azetidine-3-carbonitrile] reads 0.1 to 100 nM. On the same count and under the same terms, the result for `NC(=O)[C@H]1CCN(C(=O)c2nc(N3CCN(C(=O)N4N=CC[C@H]4c4cc(F)cc(F)c4)CC3)ncc2F)C1` [Compound 26, (S)-1-(2-(4-((S)-5-(3,5-difluorophenyl)-4,5-dihydro-1H-pyrazole-1-carbonyl)piperazin-1-yl)-5-fluoropyrimidine-4-carbonyl)pyrrolidine-3-carboxamide] reads 0.1 to 100 nM; that for `NC(=O)[C@@H]1CCN(C(=O)c2nc(N3CCN(C(=O)N4N=CC[C@H]4c4cc(F)cc(F)c4)CC3)ncc2F)C1` [Compound 27, (R)-1-(2-(4-((S)-5-(3,5-difluorophenyl)-4,5-dihydro-1H-pyrazole-1-carbonyl)piperazin-1-yl)-5-fluoropyrimidine-4-carbonyl)pyrrolidine-3-carboxamide], 0.1 to 100 nM; that for `CN(C)CC1CN(C(=O)c2nc(N3CCN(C(=O)N4N=CC[C@H]4c4cc(F)cc(F)c4)CC3)ncc2F)C1` [Compound 28, (S)-(5-(3,5-difluorophenyl)-4,5-dihydro-1H-pyrazol-1-yl)(4-(4-(3-((dimethylamino)methyl)azetidine-1-carbonyl)-5-fluoropyrimidin-2-yl)piperazin-1-yl) methanone], 0.1 to 100 nM. The same measure, in the same setting: the result for `O=C(c1nc(N2CCN(C(=O)N3N=CC[C@H]3c3cc(F)cc(F)c3)CC2)ncc1F)N1CC2(CCC2)C1` [Compound 29, (S)-(5-(3,5-difluorophenyl)-4,5-dihydro-1H-pyrazol-1-yl)(4-(5-fluoro-4-(2-azaspiro[3.3]heptane-2-carbonyl)pyrimidin-2-yl)piperazin-1-yl)methanone] reads 0.1 to 100 nM; that for `NC(=O)C1CN(C(=O)c2nc(N3CCN(C(=O)N4N=CC[C@H]4c4cc(F)cc(F)c4)CC3)ncc2F)C1` [Compound 30, (S)-1-(2-(4-(5-(3,5-difluorophenyl)-4,5-dihydro-1H-pyrazole-1-carbonyl)piperazin-1-yl)-5-fluoropyrimidine-4-carbonyl)azetidine-3-carboxamide], 0.1 to 100 nM; that for `CN(C)[C@H]1CCN(C(=O)c2nc(N3CCN(C(=O)N4N=CC[C@H]4c4cc(F)cc(F)c4)CC3)ncc2F)C1` [Compound 31, ((S)-5-(3,5-difluorophenyl)-4,5-dihydro-1H-pyrazol-1-yl)(4-(4-((S)-3-(dimethylamino)pyrrolidine-1-carbonyl)-5-fluoropyrimidin-2-yl)piperazin-1-yl)methanone], 0.1 to 100 nM.

Regarding `CN(C)[C@@H]1CCN(C(=O)c2nc(N3CCN(C(=O)N4N=CC[C@H]4c4cc(F)cc(F)c4)CC3)ncc2F)C1` [Compound 32, ((S)-5-(3,5-difluorophenyl)-4,5-dihydro-1H-pyrazol-1-yl)(4-(4-((R)-3-(dimethylamino)pyrrolidine-1-carbonyl)-5-fluoropyrimidin-2-yl)piperazin-1-yl)methanone], the concentration giving a half-maximal response (EC50) was in the range of 0.1 to 100 nM. As to `CN(C)C1CN(C(=O)c2nc(N3CCN(C(=O)N4N=CC[C@H]4c4cc(F)cc(F)c4)CC3)ncc2F)C1` [Compound 33, (S)-(5-(3,5-difluorophenyl)-4,5-dihydro-1H-pyrazol-1-yl)(4-(4-(3-(dimethylamino)azetidine-1-carbonyl)-5-fluoropyrimidin-2-yl)piperazin-1-yl)methanone], the EC50 was in the range of 0.1 to 100 nM.

With `CN(CC#N)C(=O)c1nc(N2CCN(C(=O)N3N=CC[C@H]3c3cc(F)cc(F)c3)CC2)ncc1F` [Compound 34, (S)—N-(cyanomethyl)-2-(4-(5-(3,5-difluorophenyl)-4,5-dihydro-1H-pyrazole-1-carbonyl)piperazin-1-yl)-5-fluoro-N-methylpyrimidine-4-carboxamide], the EC50 lay within 0.1 to 100 nM.

As to `CC(C)OC1CN(C(=O)c2ccnc(N3CCN(C(=O)N4N=CC[C@H]4c4cc(F)cc(F)c4)CC3)n2)C1` [Compound 37, (S)-(5-(3,5-difluorophenyl)-4,5-dihydro-1H-pyrazol-1-yl)(4-(4-(3-isopropoxyazetidine-1-carbonyl)pyrimidin-2-yl)piperazin-1-yl)methanone], the EC50 fell in the range of 0.1 to 100 nM. Still for that read-out and setting: the value for `NC(=O)c1ccnc(N2CCN(C(=O)N3N=CC[C@H]3c3cc(F)cc(F)c3)CC2)n1` [Compound 38, 2-(4-(5-(3,5-difluorophenyl)-4,5-dihydro-1H-pyrazole-1-carbonyl)piperazin-1-yl)pyrimidine-4-carboxamide] was 0.1 to 100 nM.
